Test results taken from patent US20180201592A1, “2-AMINO-1,3,4-THIADIAZINE AND 2-AMINO-1,3,4-OXADIAZINE BASED ANTIFUNGAL AGENTS” (F2G Limited, priority 2015, published 2018).

Experiments:
Conditions in all cases: banded MIC grade
[1] = system: Aspergillus fumigatus; assay: Minimum inhibitory concentration, YAG medium; type: cell-based
Outline: (§1)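 Growth was read as optical density at 485 nm after 24 hrs at 35° C, and the MIC taken as the lowest drug concentration cutting growth by >70% relative to drug-free wells. Plates held doubling dilutions (50-0.05 mg/L) with 1-2×10^4 cfu/mL spores in YAG medium.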

[2] = system: A. fumigatus 210; assay: Minimum inhibitory concentration, YAG medium; type: cell-based, Aspergillus fumigatus
Outline: as §1

[3] = system: A. terreus 49; assay: Minimum inhibitory concentration, YAG medium; type: cell-based, Aspergillus terreus
Outline: (§2)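 MIC in mg/L, from OD485 growth read-out after 24 hrs at 35° C in YAG medium with Aspergillus spores. Doubling dilutions in water made from a 5 mg/mL DMSO stock.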

[4] = system: Aspergillus flavus; assay: Minimum inhibitory concentration, YAG medium; type: cell-based
Outline: as §2

[5] = system: Aspergillus niger; assay: Minimum inhibitory concentration, YAG medium; type: cell-based
Outline: as §2

[6] = system: Aspergillus terreus; assay: Minimum inhibitory concentration, YAG medium; type: cell-based
Outline: as §2

[7] = system: A. flavus; assay: Minimum inhibitory concentration, RPMI medium; type: cell-based
Outline: (§3)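 Growth was measured by OD at 485 nm after 24-48 hrs at 35° C in RPMI 1640 medium. Compound was serially diluted twofold in water, starting from a 5 mg/mL DMSO stock solution.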

[8] = system: A. niger; assay: Minimum inhibitory concentration, RPMI medium; type: cell-based
Outline: as §3

[9] = system: A. terreus 49; assay: Minimum inhibitory concentration, RPMI medium; type: cell-based
Outline: as §3

[10] = system: A. terreus; assay: Minimum inhibitory concentration, RPMI medium; type: cell-based
Outline: as §3

[11] = system: C. albicans; assay: Minimum inhibitory concentration, RPMI medium; type: cell-based
Outline: as §3

[12] = system: C. glabrata; assay: Minimum inhibitory concentration, RPMI medium; type: cell-based
Outline: as §3

[13] = system: C. krusei; assay: Minimum inhibitory concentration, RPMI medium; type: cell-based
Outline: as §3

[14] = system: C. parapsilosis; assay: Minimum inhibitory concentration, RPMI medium; type: cell-based
Outline: as §3

[15] = system: C. tropicalis; assay: Minimum inhibitory concentration, RPMI medium; type: cell-based
Outline: as §3

[16] = system: A. fumigatus 210; assay: Minimum inhibitory concentration, RPMI medium; type: cell-based
Outline: (§4)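 Broth microdilution in RPMI 1640 (2% glucose, 0.135 M MOPS, pH 7.0) at 1-2×10^4 cfu/mL, testing 50-0.05 mg/L in doubling steps. After 24-48 hrs at 35° C, OD at 485 nm was read, and the MIC was taken as the lowest drug level suppressing growth by >80% relative to drug-free wells.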

[17] = system: A. fumigatus; assay: Minimum inhibitory concentration, RPMI medium; type: cell-based
Outline: as §4

Row | SMILES | MIC grade, A. FUMIGATUS, YAG media [1] | MIC grade, A. FUMIGATUS 210, YAG media [2] | MIC grade, A. TERREUS 49, YAG media [3] | MIC grade, A. FLAVUS, YAG media [4] | MIC grade, A. NIGER, YAG media [5] | MIC grade, A. TERREUS, YAG media [6] | MIC grade, A. FLAVUS, RPMI media [7] | MIC grade, A. NIGER, RPMI media [8] | MIC grade, A. TERREUS 49, RPMI media [9] | MIC grade, A. TERREUS, RPMI media [10] | MIC grade, C. ALBICANS, RPMI media [11] | MIC grade, C. GLABRATA, RPMI media [12] | MIC grade, C. KRUSEI, RPMI media [13] | MIC grade, C. PARAPSILOSIS, RPMI media [14] | MIC grade, C. TROPICALIS, RPMI media [15] | MIC grade, A. FUMIGATUS 210, RPMI media [16] | MIC grade, A. FUMIGATUS, RPMI media [17]
1 | NC1=NN=C(CCCCOCc2cccc(C3CC3)c2)CS1 | 3 (3: 0.2-1 mg/L) | 3 (3: 0.2-1 mg/L) | 3 (3: 0.2-1 mg/L) | 3 (3: 0.2-1 mg/L) | 3 (3: 0.2-1 mg/L) | 3 (3: 0.2-1 mg/L) | 2 (2: 5-20 mg/L) | 2 (2: 5-20 mg/L) | 2 (2: 5-20 mg/L) | 2 (2: 5-20 mg/L) | 4 (4: <1 mg/L) | 2 (2: 5-20 mg/L) | 4 (4: <1 mg/L) | 4 (4: <1 mg/L) | 4 (4: <1 mg/L) | 2 (2: 5-20 mg/L) | 3 (3: 1-5 mg/L)
2 | NC1=NN=C(CCCCOCc2cccc(CCc3ccccc3)c2)CS1 | 2 (2: 1-5 mg/L) | 1 (1: ≥5 mg/L) | 2 (2: 1-5 mg/L) | 2 (2: 1-5 mg/L) | 2 (2: 1-5 mg/L) | 2 (2: 1-5 mg/L) | 2 (2: 5-20 mg/L) | 1 (1: ≥20 mg/L) | 1 (1: ≥20 mg/L) | 1 (1: ≥20 mg/L) | 2 (2: 5-20 mg/L) | 1 (1: ≥20 mg/L) | 2 (2: 5-20 mg/L) | 2 (2: 5-20 mg/L) | 2 (2: 5-20 mg/L) | 1 (1: ≥20 mg/L) | 1 (1: ≥20 mg/L)
3 | COc1ccc(COCCCCC2=NN=C(N)SC2)cc1 | 2 (2: 1-5 mg/L) | 2 (2: 1-5 mg/L) | 2 (2: 1-5 mg/L) | 2 (2: 1-5 mg/L) | 2 (2: 1-5 mg/L) | 2 (2: 1-5 mg/L) | 1 (1: ≥20 mg/L) | 1 (1: ≥20 mg/L) | 1 (1: ≥20 mg/L) | 1 (1: ≥20 mg/L) | 2 (2: 5-20 mg/L) | 2 (2: 5-20 mg/L) | 2 (2: 5-20 mg/L) | 2 (2: 5-20 mg/L) | 2 (2: 5-20 mg/L) | 1 (1: ≥20 mg/L) | 1 (1: ≥20 mg/L)
4 | NC1=NN=C(CCCCOCc2cccc(Br)c2)CS1 | 4 (4: <0.2 mg/L) | 4 (4: <0.2 mg/L) | 4 (4: <0.2 mg/L) | 4 (4: <0.2 mg/L) | 4 (4: <0.2 mg/L) | 4 (4: <0.2 mg/L) | 4 (4: <1 mg/L) | 3 (3: 1-5 mg/L) | 3 (3: 1-5 mg/L) | 3 (3: 1-5 mg/L) | 4 (4: <1 mg/L) | 3 (3: 1-5 mg/L) | 4 (4: <1 mg/L) | 4 (4: <1 mg/L) | 4 (4: <1 mg/L) | 2 (2: 5-20 mg/L) | 4 (4: <1 mg/L)
